Like-named read-outs stand apart in the source and are kept apart here. Where a SMILES comes first, the peptide text is derived from it. [ ]: non-standard residue; d: D form. The star is where a group is joined. pNA = O=[N+]([O-])c1ccc(N*)cc1

The target of data set [1] is human plasmin (full-length; native human plasminogen SEQ ID NO: 4) (Homo sapiens, UniProt P00747). The data set can be described thus: Amidolytic activity, steady-state kinetics with substrate S-2251. The format is biochemical. To be noted: substrate S-2251, PBS buffer, pH 7.4, 25° C.
Data set [2] has as its target delta-plasmin (recombinant human plasmin deletion mutant, kringle 1-serine protease domain, deletion of K2-5; from delta-plasminogen SEQ ID NO: 2) (Homo sapiens, UniProt P00747, DELINS146-524/G536N/G539Q/K528E/L551R/N547D/P558L/Q559E/R549E/V538P/V557I). Described as above. The format is biochemical. The conditions noted are these: substrate S-2251, PBS buffer, pH 7.4, 25° C.

Data set [3] deals with human micro-plasmin (plasmin lacking all five kringles) (Homo sapiens, UniProt P00747). Described as above. To be noted: substrate S-2251, PBS buffer, pH 7.4, 25° C. The format is biochemical.
The target of data set [4] is kringle 1 (of human plasminogen). The conditions noted are these: literature value, et al., read-out: kringle 1 affinity for εACA (Kd), cited from earlier work.
Substrate in data set [5]: CC(C)C[C@H](NC(=O)[C@H](N)C(C)C)C(=O)N[C@@H](CCCCN)C(=O)Nc1ccc([N+](=O)[O-])cc1
Description: purified protein, by the assay type. To be noted: other: substrate S-2251, PBS buffer, pH 7.4, 25° C. The format is biochemical, human.

delta-plasmin (recombinant human plasmin deletion mutant, kringle 1-serine protease domain, deletion of K2-5; from delta-plasminogen SEQ ID NO: 2), sequence (P00747 with tags, fused parts or gaps K528E/G536N/V538P/G539Q/N547D/R549E/L551R/V557I/P558L/Q559E limits assumed): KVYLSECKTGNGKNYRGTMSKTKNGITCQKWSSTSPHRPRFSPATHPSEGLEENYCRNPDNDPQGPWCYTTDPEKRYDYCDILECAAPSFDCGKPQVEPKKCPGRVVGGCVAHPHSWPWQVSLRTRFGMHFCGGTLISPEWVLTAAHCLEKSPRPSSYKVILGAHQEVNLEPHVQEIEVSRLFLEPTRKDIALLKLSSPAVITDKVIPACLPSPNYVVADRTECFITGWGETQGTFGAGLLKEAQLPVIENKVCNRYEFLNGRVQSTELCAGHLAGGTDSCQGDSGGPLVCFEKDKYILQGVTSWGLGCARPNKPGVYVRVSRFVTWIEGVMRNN
human plasmin (full-length; native human plasminogen SEQ ID NO: 4), sequence (P00747 97-580 partner limits assumed, one chain of several): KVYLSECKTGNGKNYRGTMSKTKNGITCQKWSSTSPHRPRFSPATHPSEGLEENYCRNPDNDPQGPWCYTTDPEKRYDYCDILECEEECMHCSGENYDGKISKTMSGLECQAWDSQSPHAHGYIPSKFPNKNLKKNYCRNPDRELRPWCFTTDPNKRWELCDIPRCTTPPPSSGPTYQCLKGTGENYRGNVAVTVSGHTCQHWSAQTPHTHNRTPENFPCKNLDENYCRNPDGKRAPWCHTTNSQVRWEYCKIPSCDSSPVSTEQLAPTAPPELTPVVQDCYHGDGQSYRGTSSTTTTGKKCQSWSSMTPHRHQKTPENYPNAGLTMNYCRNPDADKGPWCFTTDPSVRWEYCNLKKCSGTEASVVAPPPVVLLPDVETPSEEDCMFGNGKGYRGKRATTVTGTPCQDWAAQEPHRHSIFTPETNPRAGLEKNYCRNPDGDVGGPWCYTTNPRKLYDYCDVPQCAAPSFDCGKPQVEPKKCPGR

For `CC(C)C[C@H](NC(=O)[C@H](N)C(C)C)C(=O)N[C@@H](CCCCN)C(=O)Nc1ccc([N+](=O)[O-])cc1` [S-2251, D-Val-Leu-Lys-p-nitroanilide] (H-[dV]-Leu-Lys-pNA), the kcat (usually the maximal rate divided by the concentration of active sites) stood at 12.7 ± 0.383 s⁻¹ in data set [1]; 12.6 ± 0.75 s⁻¹ in data set [2] (corrected for percent active sites (67%, PNPGB titration)); 13.2 ± 0.4 s⁻¹ in data set [3]. The “kcat (for the preparation)” value in data set [2] (not corrected for percent active sites) was found to be 8.5 s⁻¹.
Regarding `NCCCCCC(=O)O` [εACA, ε-aminocaproic acid], the equilibrium dissociation constant (Kd) (in general, a measure of binding affinity in units of concentration) in data set [4] (Douglas) was 13 µM; in data set [4] (Matsuka), 3.2 µM.

B1: human plasmin (full-length; native human plasminogen SEQ ID NO: 4) (Homo sapiens) (protein)
chain: VVGGCVAHPHSWPWQVSLRTRFGMHFCGGTLISPEWVLTAAHCLEKSPRPSSYKVILGAHQEVNLEPHVQEIEVSRLFLEPTRKDIALLKLSSPAVITDKVIPACLPSPNYVVADRTECFITGWGETQGTFGAGLLKEAQLPVIENKVCNRYEFLNGRVQSTELCAGHLAGGTDSCQGDSGGPLVCFEKDKYILQGVTSWGLGCARPNKPGVYVRVSRFVTWIEGVMRNN
notes: The C-terminal light chain of plasmin (residues 562-791); The amino-terminal heavy chain of plasmin
For B1, in data set [5], the Km is recorded as 193 +/− 7 μM μM and the kcat is listed as 760 +/− 23 min^−1 min^−1.

B2: human micro-plasmin (plasmin lacking all five kringles) (Homo sapiens) (protein)
chain: B1 chain
notes: micro-plasmin (lacking all five kringles)
In the case of B2, in data set [5], the Km is 145 +/− 13 μM μM and the kcat is given as 795 +/− 24 min^−1 min^−1.

B3: human mini-plasmin (plasmin fragment, domain composition K5-SP; mini-plasminogen residues Val443-Asn791) (Homo sapiens) (protein)
chain: B1 chain
notes: includes residues Val443-Asn791 and consists of the fifth kringle and the serine protease domain
In the case of B3, in data set [5], the Km was 160 +/− 30 μM μM and the kcat is on record as 770 +/− 70 min^−1 min^−1.

These data come from patent US8231869B2, “Recombinant plasmin for opthalmic indications” (priority 2005, dated 2012).
